Assay results published in US6608086B2, “Dihydropyridines and new uses thereof” (Synaptic Pharmaceutical Corporation, priority 1993, dated 2003).
Counter-ions that a name gives are not always drawn. Like-named read-outs stand apart in the source and are kept apart here. Values belong to the compound of their own block, whether it stands above or below them.

Legend:
[1] = target: T1, α1B Human Adrenergic Receptor (Homo sapiens, UniProt P35368); experiment: Radioligand binding, [3H]prazosin, cloned human α1B adrenergic receptor
T1 construct: The entire coding region of α1B (1563 bp); expressed in transfected cells
T1 sequence (P35368 1-520): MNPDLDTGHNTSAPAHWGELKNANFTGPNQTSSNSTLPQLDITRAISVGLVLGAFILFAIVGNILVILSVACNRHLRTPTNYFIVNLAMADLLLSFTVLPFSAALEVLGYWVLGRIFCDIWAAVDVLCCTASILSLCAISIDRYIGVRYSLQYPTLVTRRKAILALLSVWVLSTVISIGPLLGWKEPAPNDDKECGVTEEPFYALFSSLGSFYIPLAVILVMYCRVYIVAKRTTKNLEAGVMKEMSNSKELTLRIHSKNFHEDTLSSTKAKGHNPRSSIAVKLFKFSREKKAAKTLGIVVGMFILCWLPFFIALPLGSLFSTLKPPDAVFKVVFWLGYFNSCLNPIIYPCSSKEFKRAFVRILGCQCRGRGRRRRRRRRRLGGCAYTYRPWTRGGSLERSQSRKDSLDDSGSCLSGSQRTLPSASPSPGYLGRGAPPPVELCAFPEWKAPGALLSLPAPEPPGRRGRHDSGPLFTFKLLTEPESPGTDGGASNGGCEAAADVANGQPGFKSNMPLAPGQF
Method: (§1) The protocols for these experiments are given below.
(§2) These cell lines were prepared by transfecting the cloned cDNA or cloned genomic DNA or constructs containing both genomic DNA and cDNA encoding the human α-adrenergic receptors as follows:
α1B Human Adrenergic Receptor:
The construct involved ligating the full-length containing EcoRI brainstem cDNA fragment from λ ZapII into the expression vector. Stable cell lines were selected as described above.
(§3) Radioligand Binding Assays:
(§4) Transfected cells from culture flasks were scraped into 5 ml of 5 mM Tris-HCl, 5 mM EDTA, pH 7.5, and lysed by sonication. The cell lysates were centrifuged at 1000 rpm for 5 min at 4° C., and the supernatant was centrifuged at 30,000× g for 20 min at 4° C. The pellet was suspended in 50 mM Tris-HCl, 1 mM MgCl2, and 0.1% ascorbic acid at pH 7.5. Binding of the α1 antagonist [^3H]prazosin (0.5 nM, specific activity 76.2 Ci/mmol) to membrane preparations of LM(tk−) cells was done in a final volume of 0.25 ml and incubated at 37° C. for 20 min. Nonspecific binding was determined in the presence of 10 μM phentolamine. The reaction was stopped by filtration through GF/B filters using a cell harvester.

[2] = target: T2, α1C Human Adrenergic Receptor (Homo sapiens, UniProt P35348); experiment: Radioligand binding, [3H]prazosin, cloned human α1C adrenergic receptor
T2 construct: The entire coding region of α1C (1401 bp); expressed in transfected cells
T2 sequence (P35348 1-466): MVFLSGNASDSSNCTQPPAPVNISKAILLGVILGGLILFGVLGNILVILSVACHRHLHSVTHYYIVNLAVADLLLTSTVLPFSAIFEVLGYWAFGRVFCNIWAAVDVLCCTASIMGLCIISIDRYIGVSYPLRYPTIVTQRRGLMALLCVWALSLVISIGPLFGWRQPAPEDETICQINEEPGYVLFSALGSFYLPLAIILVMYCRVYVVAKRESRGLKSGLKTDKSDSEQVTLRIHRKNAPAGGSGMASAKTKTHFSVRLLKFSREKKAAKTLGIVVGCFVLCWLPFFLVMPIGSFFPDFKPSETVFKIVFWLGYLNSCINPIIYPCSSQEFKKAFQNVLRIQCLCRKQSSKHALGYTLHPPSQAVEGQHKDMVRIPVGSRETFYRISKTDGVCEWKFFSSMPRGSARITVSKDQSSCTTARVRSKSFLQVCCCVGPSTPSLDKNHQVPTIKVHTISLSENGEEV
Method: as §1, §2
α1C Human Adrenergic Receptor:
The construct involved ligating three partial overlapping fragments: a 5′, 0.6 kb HincII genomic clone, a central 1.8 EcoRI hippocampal cDNA clone, and a 3′ 0.6Kb PstI genomic clone. The hippocampal cDNA fragment overlaps with the 5′ and 3′ genomic clones so that the HincII and PstI sites at the 5′ and 3′ ends of the cDNA clone, respectively, were utilized for ligation. This full-length clone was cloned into the KpnI site of the expression vector, using the 5′ and 3′ KpnI sites of the fragment, derived from vector (i.e., pBluescript) and 3′-untranslated sequences, respectively. Stable cell lines were selected as described above.
as §3, §4

[3] = target: T3, α1A Human Adrenergic Receptor (Homo sapiens, UniProt P25100); experiment: Radioligand binding, [3H]prazosin, cloned human α1A adrenergic receptor; details: [3H]prazosin
T3 construct: The entire coding region of α1A (1719 bp); expressed in transfected cells
T3 sequence (P25100 1-572): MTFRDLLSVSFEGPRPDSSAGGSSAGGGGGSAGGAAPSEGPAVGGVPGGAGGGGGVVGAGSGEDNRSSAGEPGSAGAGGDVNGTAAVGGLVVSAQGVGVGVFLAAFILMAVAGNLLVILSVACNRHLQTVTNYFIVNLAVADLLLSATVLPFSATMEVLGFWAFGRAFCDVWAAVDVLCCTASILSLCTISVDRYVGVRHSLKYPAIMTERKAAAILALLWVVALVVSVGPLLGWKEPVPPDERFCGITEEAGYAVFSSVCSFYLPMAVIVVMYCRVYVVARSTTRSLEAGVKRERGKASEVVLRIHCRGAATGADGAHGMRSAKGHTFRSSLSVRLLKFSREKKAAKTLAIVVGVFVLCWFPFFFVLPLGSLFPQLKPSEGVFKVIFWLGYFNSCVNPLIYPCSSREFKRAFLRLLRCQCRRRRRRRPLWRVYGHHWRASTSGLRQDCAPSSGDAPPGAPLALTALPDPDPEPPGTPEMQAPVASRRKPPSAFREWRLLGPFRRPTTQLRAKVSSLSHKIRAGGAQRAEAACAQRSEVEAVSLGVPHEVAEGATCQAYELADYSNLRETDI
Method: as §1, §2
α1A Human Adrenergic Receptor:
The cells were grown, in a controlled environment (37° C., 5% CO2), as monolayers in Dulbecco's modified Eagle's Medium (GIBCO, Grand Island, N.Y.) containing 25 mM glucose and supplemented with 10% bovine calf serum, 100 units/ml penicillin g, and 100 μg/ml streptomycin sulfate.
as §3, §4

[4] = cloned human receptor, LM(tk-) cell membranes, mean, read-out: PKi alpha-1 1b (converted)
[5] = cloned human receptor, LM(tk-) cell membranes, mean, read-out: PKi alpha-1 1c (converted)
[6] = cloned human receptor, LM(tk-) cell membranes, mean, read-out: PKi alpha-1 1a (converted)

- melting point: 160 °C
SMILES: COC(=O)C1=C(C)NC(C)=C(C(=O)NCCCN2CCC(c3ccccc3)CC2)C1c1ccc([N+](=O)[O-])cc1 (racemic) (as salt: hydrochloride) (hydrate or solvate) [(±)-45, (±)-1,4-Dihydro-3-methoxycarbonyl-2,6-dimethyl-4-(4-nitrophenyl)-5-{N-[3-(4-phenylpiperidin-1-yl)propyl]}carboxamidopyridine hydrochloride hemihydrate]

- melting point: 117 to 118 °C
SMILES: CCNC(=O)C1=C(C)NC(C)=C(C(=O)NCCCN2CCC(C(=O)OC)(c3ccccc3)CC2)C1c1ccc([N+](=O)[O-])cc1 (stereo not shown) [Example 205, 1,4-Dihydro-2,6-dimethyl-5-(N-ethyl)carboxamido-3-{N-[3-(4-methoxycarbonyl-4-phenylpiperidin-1-yl)propyl]}carboxamido-4-(4-nitrophenyl)pyridine]

- melting point: 112 to 113 °C
SMILES: CCOC(=O)C1(c2ccccc2)CCN(CCCNC(=O)C2=C(C)NC(C)=C(C(=O)NC)C2c2ccc([N+](=O)[O-])cc2)CC1 (stereo not shown) [Example 188, 1,4-Dihydro-2,6-dimethyl-3-{N-[3-(4-ethoxycarbonyl-4-phenyl-piperidin-1-yl)propyl]}carboxamide-5-(N-methyl)carboxam ido-4-(4nitrophenyl)pyridine]

- melting point: 161 to 162 °C
SMILES: COC(=O)C1=C(C)NC(C)=C(C(=O)NCCCN2CCc3cc(OC)c(OC)cc3C2)C1c1ccc([N+](=O)[O-])cc1 (stereo not shown) (as salt: hydrochloride) (hydrate or solvate) [Example 57, 1,4-Dihydro-3-methoxycarbonyl-5-{N-[3-(1,2,3,4-tetrahydro-6,7-dimethoxyisoquinolin-2-yl)propyl]}carboxamido-2,6-dimethyl-4-(4-nitrophenyl)pyridine hydrochloride hydrate]

Second part, the compound before the results:

SMILES: CCOC(=O)C1(c2ccccc2)CCN(CCCNC(=O)C2=C(COCCN=[N+]=[N-])NC(CC)=C(C(N)=O)C2c2ccc([N+](=O)[O-])cc2)CC1 (stereo not shown) [Example 190, 2-[(2-Azidoethoxy)methyl]-5-carboxamido-3-{N-[3-(4-ethoxycarbonyl-4-phenylpiperidin-1-yl)propyl]}carboxamido-1,4-dihydro-6-ethyl-4-(4-nitrophenyl)pyridine]
- Ki [1, 4]: 0.708 µM
- Ki [2, 5]: 0.00537 µM
- melting point: 63 to 64 °C
- Ki [3, 6]: 1.35 µM

SMILES: CCNC(=O)C1=C(CC)NC(COCCN=[N+]=[N-])=C(C(=O)NCCCN2CCC(c3ccccc3)(c3ccccc3)CC2)C1c1ccc([N+](=O)[O-])cc1 (stereo not shown) [Example 145, 2-((2-Azidoethyl)oxy)methyl-6-methyl-6-ethyl-5-(N-ethyl) carboxamido-1,4-dihydro-4-(4-nitro)phenyl-3-(N-(3-(4,4-diphenylpiperidin-1-yl)propyl))carboxamidopyridine]
- Ki ([1]; cloned human α1B receptor, LM(tk−) cell membranes, read-out: pKi alpha-1 1b (converted)): 0.324 µM
- Ki ([2]; cloned human α1C receptor, LM(tk−) cell membranes, read-out: pKi alpha-1 1c (converted)): 0.00617 µM
- melting point: 82 to 87 °C
- Ki ([3]; cloned human α1A receptor, LM(tk−) cell membranes, read-out: pKi alpha-1 1a (converted)): 0.38 µM

SMILES: CC1=C(C(N)=O)C(c2ccc([N+](=O)[O-])cc2)C(C(=O)NCCCN2CCC(c3ccccc3)(c3ccccc3)CC2)=C(CCCCCN)N1 (stereo not shown) [Example 169, 2-(5-Aminopentyl)-5-carboxamido-1,4-dihydro-6-methyl-4-(4-nitrophenyl)-3-{N-[3-(4,4-diphenylpiperidin-1-yl)propyl]}carboxamidopyridine]
- Ki ([1]; PKi alpha-1 1b, cloned human receptor, LM(tk-) cell membranes, mean): 0.229 µM
- Ki ([2]; PKi alpha-1 1c, cloned human receptor, LM(tk-) cell membranes, mean): 0.00724 µM
- melting point: 75 to 78 °C
- Ki ([3]; PKi alpha-1 1a, cloned human receptor, LM(tk-) cell membranes, mean): 0.513 µM

SMILES: CCOC(=O)C1(c2ccccc2)CCN(CCCNC(=O)C2=C(COCCN=[N+]=[N-])NC(CC)=C(C(=O)NC)C2c2ccc([N+](=O)[O-])cc2)CC1 (stereo not shown) [Example 191, 2-[(2-Azidoethoxy)methyl]-3-{N-[3-(4-ethoxycarbonyl-4-phenyl-piperidin-1-yl)propyl]}carboxamido-1,4-dihydro-6-ethyl-5-(N-methyl)carboxamido-4-(4-nitrophenyl)pyridine]
- Ki [1, 4]: 1.35 µM
- Ki [2, 5]: 0.00813 µM
- melting point: 67 to 68 °C
- Ki [3, 6]: 1.95 µM

SMILES: COC(=O)C1(c2ccccc2)CCN(CCCNC(=O)C2=C(C)NC(C)=C(C(=O)OCCC#N)C2c2ccc([N+](=O)[O-])cc2)CC1 (stereo not shown) [Example 203, 5-(2-Cyanoethoxycarbonyl)-1,4-dihydro-2,6-dimethyl-3-{N-[3-(4-methoxycarbonyl-4-phenylpiperidin-1-yl)propyl]}carbo xamido-4-(4-nitrophenyl)pyridine]
- melting point: 73 to 74 °C
- Ki [3, 6]: 0.759 µM

SMILES: CCC1=C(C(N)=O)C(c2ccc([N+](=O)[O-])cc2)C(C(=O)NCCCN2CCC(c3ccccc3)(c3ccccc3)CC2)=C(COCCN=[N+]=[N-])N1 (stereo not shown)
- melting point: 88 to 93 °C

SMILES: CCC1=C(C(N)=O)C(c2ccc([N+](=O)[O-])cc2)C(C(=O)NCCCN2CCC(O)(c3ccccc3)CC2)=C(CC)N1 (stereo not shown) (as salt: hydrochloride) (hydrate or solvate) [Example 100, 5-Carboxamido-2,6-diethyl-1,4-dihydro-3-{N-(3-(4-hydroxy-4-phenylpiperidin-1-yl)propyl]}carboxamido-4-(4-nitrophenyl)pyridine hydrochloride hydrate]
- melting point: 165 °C (dec.)

SMILES: CCC1=C(C(N)=O)C(c2ccc([N+](=O)[O-])cc2)C(C(=O)NCCCN2CCC(c3ccc(OC)cc3)(c3ccc(OC)cc3)CC2)=C(CC)N1 (stereo not shown) (as salt: hydrochloride) [Example 103, 5-Carboxamido-2,6-diethyl-1,4-dihydro-3-{N-[3-(4,4-bis-(4-methoxyphenyl)piperidin-1-yl)propyl]}carboxamido}-4-(4-nitrophenyl)pyridine hydrochloride]
- melting point: 175 °C (dec.)
